Laboratory results reported in patent publication US20260327232A1, “Heteroaryl Compounds as Ligand Directed Degraders of IRAK4” (Celgene Corporation, priority 2023, published 2026).
Counter-ions that a name gives are not always drawn.

What was measured:
[1] = molecular target: T1, IRAK4 (Homo sapiens, UniProt Q9NWZ3); assay: IRAK4 PhosphoSens Biochemical Assay (BIOCHEM); details: 200 μM ATP, 10 μM peptide substrate AQT0326, 1 nM IRAK4, room temperature, 240 minutes
T1 sequence (Q9NWZ3 1-460): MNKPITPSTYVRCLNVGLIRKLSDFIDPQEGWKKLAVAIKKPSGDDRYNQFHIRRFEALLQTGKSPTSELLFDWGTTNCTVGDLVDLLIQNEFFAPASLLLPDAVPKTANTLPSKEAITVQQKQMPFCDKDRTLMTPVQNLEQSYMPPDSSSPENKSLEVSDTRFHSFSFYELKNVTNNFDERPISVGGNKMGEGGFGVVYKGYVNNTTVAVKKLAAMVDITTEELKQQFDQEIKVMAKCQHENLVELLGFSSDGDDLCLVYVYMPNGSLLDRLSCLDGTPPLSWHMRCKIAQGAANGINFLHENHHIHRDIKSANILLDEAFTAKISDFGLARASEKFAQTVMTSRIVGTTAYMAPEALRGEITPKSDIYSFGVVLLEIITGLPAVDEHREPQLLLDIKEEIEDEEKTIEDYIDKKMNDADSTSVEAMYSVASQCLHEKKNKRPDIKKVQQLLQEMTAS
Experimental: The PhosphoSens® biochemical assay was performed as described by the vendor (AssayQuant Technologies Inc. Marlborough, MA). A 1.25× stock solution of IRAK4 (PV4002, ThermoFisher Scientific, Waltham, MA) and a 5× stock solution of ATP and Sox conjugated peptide substrate, AQT0326 (CSKS-AQT0326B, AssayQuant Technologies), were prepared in 1× kinase reaction buffer consisting of 50 mM HEPES, pH 7.5, 0.01% Brij-35, 0.5 mM EGTA, 20 mM MgCl2 and 1 mM DTT. 10 μL of the ATP and substrate solution mix, for a final concentration of 200 μM ATP and 10 μM peptide substrate, was added to a Coming 3574 384-well, white, non-binding surface microtiter plate containing 0.5 μL of serially diluted test compounds prepared in DMSO. The reactions were started with the addition of 40 μL of the enzyme solution, for a final IRAK4 concentration of 1 nM, and monitored every 71 seconds for 240 minutes at λEX 360/λEM 485 in a BioTek Synergy H4 plate reader (Agilent Technologies, Santa Clara, CA) at room temperature. The initial linear portions of the progress curves were fit according to a linear equation to yield the slopes and converted to % inhibition based on a value of 100% activity for the no inhibitor treated control. IC50 values of each compound were obtained by fitting the % inhibition-compound concentration curves using Dotmatics software (Dotmatics, Bishops Stortford, Hertfordshire, England).

[2] = molecular target: T1, IRAK4; assay: ALE THP1 HTRF (IRAK4 in THP1 cell lysates, Homogeneous Time Resolved Fluorescence); assay type: cell-based; set-up: THP1 Homogeneous Time Resolved Fluorescence (ALE THP1 HTRF) Procedure; endogenous in cells; host or cells: THP1; details: THP1 cells
Experimental: Cell culture media was prepared in a tissue culture hood in a sterile environment by adding 10% FBS and 1% Penicillin Streptomycin to 500 mL no phenol red RPMI 1640 media. The media was filtered through a Nalgene Bottle Top Filter and stored at 4° C.
For Homogenous Time Resolved Fluorescence (HTRF) assays, a Cisbio HTRF kit was used, which included: Lysis Buffer #1 4×, Blocking Reagent #3 100×, 20× Antibody 1 (Anti-IRAK4 d2), 20× Antibody 2 (Anti-IRAK4 k), and Detection Buffer.
4× Lysis Buffer was stored at 4° C. For use as 1× Lysis buffer, the 4× solution was diluted with de-ionized water (distilled water, Gibco Cat. #15230279) and 100× Blocking Reagent in a 1:3:0.04 volume ratio.
20× Antibody Solution aliquots were stored in −80° C. and the Detection Buffer was stored in 4° C. For use as a 1× Antibody Solution, the 20× Antibody Solution aliquot was diluted with Detection Buffer in a 1:19 volume ratio.
Cells were lysed at room temperature for 45 min with shaking. A BCA protein assay was performed and normalization was conducted to the desired total protein concentration with 1× lysis buffer. Next, 1× Antibody Solutions were prepared by adding 380 μL Detection Buffer to 20 μL 20× Antibody Solution aliquots and mixing well. 1× Antibody Solutions were combined 1:1 and briefly vortexed. For control wells, 20 μL 1× anti IRAK4-k Antibody Solution was saved. The 384-well plate (ProxiPlate-384 Plus, Perkin Elmer Cat. #6008289) was loaded by adding 4 μL of the mixed Antibody Solution to empty wells using a single channel repeater. Using a multi-channel repeater, 16 μL lysate was added per well, and any bubbles that were formed were popped with 20 μL pipette tips and Kimwipe edges. In column 10, triplicates of each control was prepared. In wells A10, B10, and C10, buffer control was prepared by adding 16 μL Lysis Buffer and 4 μL Detection Buffer. In wells D10, E10, and F10, cryptate control was prepared by adding 16 μL Lysis Buffer, 2 μL Detection Buffer, and 2 μL 1× anti IRAK4-k Antibody Solution. In wells G10, H10, and 110, a negative control was prepared by adding 16 μL Lysis Buffer and 4 μL mixed Antibody Solution. The plate was sealed with a clear seal and covered with an aluminum lid. The plate was spun down at 800 g for 5 min and incubated in the dark at room temperature overnight. The next day, the plate was spun down at 800 g for 5 min. The samples were analyzed by a plate reader (Envision, PerkinElmer) using the Desnor 384 HTRF program.

SMILES | IC50 [1] [nM] | EC50 [2] [nM]
Cn1nc(C2CCC(=O)NC2=O)c2ccc(NC3CCN(CC4CCC(n5cc(NC(=O)c6cnn7ccc(N8CCOCC8)nc67)c(C(F)F)n5)CC4)CC3)cc21 (stereo not shown) [P-27, N-[3-(Difluoromethyl)-1-[4-[[4-[[3-(2,6-dioxo-3-piperidyl)-1-methyl-indazol-6-yl]amino]-1-piperidyl]methyl]cyclohexyl]pyrazol-4-yl]-5-morpholino-pyrazolo[1,5-a]pyrimidine-3-carboxamide formic acid salt] | < 0.5 | 1
CN(CC1CCC(n2cc(NC(=O)c3cnn4ccc(N5C[C@H](N)C[C@@H](F)C5)nc34)c(C(F)F)n2)CC1)C1CCN(c2ccc3c(C4CCC(=O)NC4=O)nn(C)c3c2)CC1 (stereo partly shown) [P-28, N-[3-(Difluoromethyl)-1-[4-[[[1-[3-(2,6-dioxo-3-piperidyl)-1-methyl-indazol-6-yl]-4-piperidyl]-methyl-amino]methyl]cyclohexyl]pyrazol-4-yl]-5-[(3r,5r)-3-amino-5-fluoro-1-piperidyl]pyrazolo[1,5-a]pyrimidine-3-carboxamide] | < 0.5 | 5
CN(CC1CCC(n2cc(NC(=O)c3cnn4ccc(N5C[C@H]6CC[C@@H](C5)O6)nc34)c(C(F)F)n2)CC1)C1CCN(c2ccc3c(C4CCC(=O)NC4=O)nn(C)c3c2)CC1 (stereo partly shown) [P-42] | < 0.5 | > 10000
CN(c1cccc2c(C3CCC(=O)NC3=O)nn(C)c12)C1CCN(CCC2CCC(n3cc(NC(=O)c4cnn5ccc(N6CCOCC6)nc45)c(C(F)F)n3)CC2)CC1 (stereo not shown) [P-39] | < 0.5 | > 10000
Cn1nc(C2CCC(=O)NC2=O)c2ccc(NC3CCN(CC4CCC(n5cc(NC(=O)c6cnn7ccc(N8CC[C@H](F)[C@@H](N)C8)nc67)c(C(F)F)n5)CC4)CC3)cc21 (stereo partly drawn) [P-18, N-[3-(Difluoromethyl)-1-[4-[[4-[[3-(2,6-dioxo-3-piperidyl)-1-methyl-indazol-6-yl]amino]-1-piperidyl]methyl]cyclohexyl]pyrazol-4-yl]-5-[(3S,4S)-3-amino-4-fluoro-1-piperidyl]pyrazolo[1,5-a]pyrimidine-3-carboxamide] | < 0.5 | 1
